Values belong to the compound of their own block, whether it stands above or below them.
Test system: μpatterned hiPSC-CMs
Assay: movement of LifeAct-labeled myofibrils in beating μpatterned hiPSC-CMs (cross-correlation, Ncorr)
Format: cell-based, human
Conditions: for aδ (temporal asynchronicity) / d (displacement) / VR (peak velocity of relaxation) / VC (peak velocity of contraction) / aθ (spatial asynchronicity): LifeAct, single cell
Description: We fluorescently labeled actin with LifeAct in live hiPSC-CMs to image myofibrils and sarcomeres as described before. (Ribeiro 2015a) For this effect, we incubated hiPSC-CMs with the adenovirus rAV CAG-LifeAct-TagRFP (Ibidi; 1×10^5 IU/mL in cell-culture medium) overnight at 37° C. in a humid 5% CO2 atmosphere. We then washed cells once with PBS at 37° C. and added new medium. We observed actin labeled in sarcomeres after 2 days of adding the adenovirus to the culture medium. To induce contractile changes in hiPSC-CMs, we added drugs known to affect CM contractile machinery to the culture medium. We analyzed the mechanical output of cells after adding drugs. […] We exposed single cells to concentrations of 0.1 μM and then 1 μM of isoproterenol (Sigma, Saint Louis, Mo.) to test how the contractile activity of each cell varied after adding different amounts of isoproterenol to the medium. Omecamtiv mecarbil (Adooq Bioscience, Irvine, Calif.) was also added to the cell culture medium at 10 nM or 0.1 μM to detect different variations in the contractile response of hiPSC-CMs after adding one of these concentrations. We acquired videos of single beating hiPSC-CMs imaged with differential interference contrast microscopy at frame rates higher than 30 fps for a time between 4 and 10 s. We used MATLAB (R2014b version, Mathworks) to convert pixels of each frame to microns. Zeiss files (.czi) contained information on the pixel dimensions and were imported into MATLAB using the Bioformats package. ([…] 2010) We also confirmed the software calibration with calibration slides (Electron Microscopy Sciences). For each video of a beating single cell, we selected a region of interest (ROI) around the borders of the cell and analyzed average displacements within this ROI (FIG. 1B). For this purpose, we selected a baseline frame, within all the frames of the video, which represented the relaxed state of the cell and calculated average displacement within the ROI for the remaining frames relative to the baseline frame. As noted bellow, this procedure was automated. We then calculated displacements from microscopy videos with cross-correlation approaches: digital image correlation (DIC) and particle image velocimetry (PIV) approaches. […] Cross-correlation is done between sub-blocks of the image and the highest correlation indicates the maximum likelihood that blocks match. We tested the following cross-correlation algorithms: PIVIab, ImageJ PIV (Tseng 2012) and Ncorr. PIVIab and Ncorr were written in MATLAB, while ImageJ PIV is a plugin for ImageJ (NIH). Ncorr generally performs better, but uses more computational time. (Blaber 2015) We measured two parameters of asynchronicity of contractile movement within the ROI: spatial asynchronicity (aθ) of contractile movement and temporal asynchronicity (aδ) of contractile movement. Spatial synchronicity occurs when the different regions of the cell move along the same directions and temporal synchronicity occurs when all the regions of the cell move at the same time. To calculate aθ, we first computed the direction of movement (θ) for every movement vector of different regions i inside the ROI (FIG. 1B) at each frame as defined by The second approach performed better for analyzing sarcomere lengths in videos of LifeAct labeled beating cells. This approach was applied to different frames in a video to determine how the different properties measure with traction force microscopy or from cell movement related to sarcomere size, movement and orientation during the contractile cycle. Most of the tested approaches relied on successful skeletonization of each frame, which may not be perfect due to noise or inconsistent illumination. To quantitatively compare different skeletons from different frames in a video, we generated a master skeleton based on the skeletons generated from all frames. […]

SMILES: CC(C)NCC(O)c1ccc(O)c(O)c1 (stereo not drawn) [isoproterenol]
aδ (temporal asynchronicity) (ISO 0.1 (μM per FIG. 4), no ISO: 0.1): 0.31 s
d (displacement) (ISO 0.1 (μM per FIG. 4), no ISO: 1.22): 1.43 μm
VR (peak velocity of relaxation) (ISO 0.1 (μM per FIG. 4), no ISO: 2.54): 3.45 μm/s
VC (peak velocity of contraction) (ISO 0.1 (μM per FIG. 4), no ISO: 2.63): 4.78 μm/s
aθ (spatial asynchronicity) (ISO 0.1 (μM per FIG. 4), no ISO: 55.4): 19.5 °
aδ (temporal asynchronicity) (ISO 1 (μM per FIG. 4), no ISO: 0.1): 0.28 s
d (displacement) (ISO 1 (μM per FIG. 4), no ISO: 1.22): 0.71 μm
VR (peak velocity of relaxation) (ISO 1 (μM per FIG. 4), no ISO: 2.54): 2.05 μm/s
VC (peak velocity of contraction) (ISO 1 (μM per FIG. 4), no ISO: 2.63): 2.02 μm/s
aθ (spatial asynchronicity) (ISO 1 (μM per FIG. 4), no ISO: 55.4): 20.8 °

chronic effects on the organization of myofibrils (0.1 μM omecamtiv mecarbil, chronic, 2 minutes after adding (FIG. 6C)): myofibril damaging
SMILES: COC(=O)N1CCN(Cc2cccc(NC(=O)Nc3ccc(C)nc3)c2F)CC1 [omecamtiv mecarbil]
acute changes in sarcomere organization and movement (0.1 μM omecamtiv mecarbil, acute, single cell (FIG. 6B)): oscillatory contractions of sarcomeres and overlap between sarcomeres
acute values of dmax and br from myofibril movement (0.1 μM omecamtiv mecarbil, single cell (FIG. 6F)): slightly increased
acute VC and VR from myofibril movement (0.1 μM omecamtiv mecarbil, single cell (FIG. 6G)): no considerable acute variations
aδ (temporal asynchronicity) (OM 0.1 μM (FIG. 6), row 'acute', no OM: 0.05): 0.89 s
d (displacement) (OM 0.1 μM (FIG. 6), row 'acute', no OM: 1.03): 0.25 μm
VR (peak velocity of relaxation) (OM 0.1 μM (FIG. 6), row 'acute', no OM: 2.2): 0.51 μm/s
VC (peak velocity of contraction) (OM 0.1 μM (FIG. 6), row 'acute', no OM: 2.25): 0.54 μm/s
aθ (spatial asynchronicity) (OM 0.1 μM (FIG. 6), row 'acute', no OM: 36.3): 40.9 °
aδ (temporal asynchronicity) (OM 0.1 μM (FIG. 6), row 'chronic', no OM: 0.05): 0.88 s
d (displacement) (OM 0.1 μM (FIG. 6), row 'chronic', no OM: 1.03): 0.93 μm
VR (peak velocity of relaxation) (OM 0.1 μM (FIG. 6), row 'chronic', no OM: 2.2): 1.63 μm/s
VC (peak velocity of contraction) (OM 0.1 μM (FIG. 6), row 'chronic', no OM: 2.25): 2.2 μm/s
aθ (spatial asynchronicity) (OM 0.1 μM (FIG. 6), row 'chronic', no OM: 36.3): 17.1 °
